Laboratory results published in PubChem BioAssay AID248 (DTP/NCI, 2004).
“And” between values parts separate entries of the source, which are not always exact repeats. Equal entries are not always repeated. Toxic doses and inconclusive results are not listed.

System: L1210 leukemia ip in BDF1 mice, survival T/C
Assay: NCI In Vivo Anticancer Drug Screen. Data for tumor model L1210 Leukemia (intraperitoneal) in B6D2F1 (BDF1) mice
Conditions: endpoint: mean survival time, higher = longer survival
How it was run: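 Tumor was transplanted into mice, which were then dosed with test compound or vehicle alone. Survival was recorded for each group, and the treated figure was expressed relative to the control figure.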

[1] = dose: 100.0 mg/kg/injection, schedule: Q01DX001 (ip), vehicle: saline
[2] = dose: 200.0 mg/kg/injection, schedule: Q01DX001 (ip), vehicle: saline
[3] = dose: 400.0 mg/kg/injection, schedule: Q01DX001 (ip), vehicle: saline
[4] = dose: 75.0 mg/kg/injection, schedule: Q01DX001 (ip), vehicle: saline
[5] = dose: 150.0 mg/kg/injection, schedule: Q01DX001 (ip), vehicle: saline
[6] = dose: 100.0 mg/kg/injection, schedule: Q01DX001 (ip), vehicle: carboxymethylcellulose (CMC)
[7] = dose: 200.0 mg/kg/injection, schedule: Q01DX001 (ip), vehicle: carboxymethylcellulose (CMC)
[8] = dose: 100.0 mg/kg/injection, schedule: Q01DX009 (ip), vehicle: Klucel (hydroxypropylcellulose) (HPC)
[9] = dose: 100.0 mg/kg/injection, schedule: Q04DX003 (ip), vehicle: Klucel (hydroxypropylcellulose) (HPC)
[10] = dose: 200.0 mg/kg/injection, schedule: Q01DX009 (ip), vehicle: Klucel (hydroxypropylcellulose) (HPC)
[11] = dose: 200.0 mg/kg/injection, schedule: Q04DX003 (ip), vehicle: Klucel (hydroxypropylcellulose) (HPC)
[12] = dose: 400.0 mg/kg/injection, schedule: Q01DX009 (ip), vehicle: Klucel (hydroxypropylcellulose) (HPC)
[13] = dose: 400.0 mg/kg/injection, schedule: Q04DX003 (ip), vehicle: Klucel (hydroxypropylcellulose) (HPC)

## C1CCC2OC3(CC2C1)OC1CCCCC1O3 (stereo not drawn)
dose: 75.0 mg/kg/injection, schedule: Q04DX002 (ip), vehicle: saline + alcohol
  T/C: 101 % of control
dose: 150.0 mg/kg/injection, schedule: Q04DX002 (ip), vehicle: saline + alcohol
  T/C: 116 % of control
dose: 300.0 mg/kg/injection, schedule: Q04DX002 (ip), vehicle: saline + alcohol
  T/C: 105 % of control

## S=C(N/N=C/c1ccc2c(c1)OCO2)Nc1cccc2cccnc12
[1]
  T/C: 105 % of control
[2]
  T/C: 88 % of control
[3]
  T/C: 96 % of control

## CCOC(=O)NC(C)NC(=O)OCC
[1]
  T/C: 107 % of control
[2]
  T/C: 101 % of control
[3]
  T/C: 97 % of control

## O=Cc1ccc[nH]1
dose: 100.0 mg/kg/injection, schedule: Q04DX003 (ip), vehicle: other
  T/C: 93 % of control
dose: 200.0 mg/kg/injection, schedule: Q04DX003 (ip), vehicle: other
  T/C: 96 % of control
dose: 400.0 mg/kg/injection, schedule: Q04DX003 (ip), vehicle: other
  T/C: 110 % of control

## O=C(Nc1cc(NC(=O)Nc2cccc(C3=NCCN3)c2)cc(C(=O)O)c1)Nc1cccc(C2=NCCN2)c1
dose: 15.0 mg/kg/injection, schedule: Q01DX Z (ip), vehicle: carboxymethylcellulose (CMC)
  T/C: 96 % of control
dose: 30.0 mg/kg/injection, schedule: Q01DX Z (ip), vehicle: carboxymethylcellulose (CMC)
  T/C: 96 % of control
dose: 60.0 mg/kg/injection, schedule: Q01DX Z (ip), vehicle: carboxymethylcellulose (CMC)
  T/C: 94 % of control
dose: 120.0 mg/kg/injection, schedule: Q01DX Z (ip), vehicle: carboxymethylcellulose (CMC)
  T/C: 100 % of control and 106 % of control
dose: 240.0 mg/kg/injection, schedule: Q01DX Z (ip), vehicle: carboxymethylcellulose (CMC)
  T/C: 104 % of control

## OC1C2c3ccccc3C(c3ccccc32)C1O (stereo not drawn)
[4]
  T/C: 107 % of control
[5]
  T/C: 93 % of control
dose: 300.0 mg/kg/injection, schedule: Q01DX001 (ip), vehicle: saline
  T/C: 99 % of control

## O=C(O)CSc1n[nH]c(=O)[nH]c1=O
[1]
  T/C: 117 % of control
[2]
  T/C: 97 % of control
[3]
  T/C: 113 % of control

## O=C(O)c1ccc2c(c1)Cc1ccccc1-2
dose: 75.0 mg/kg/injection, schedule: Q01DX001 (ip), vehicle: carboxymethylcellulose (CMC)
  T/C: 96 % of control
dose: 150.0 mg/kg/injection, schedule: Q01DX001 (ip), vehicle: carboxymethylcellulose (CMC)
  T/C: 95 % of control
dose: 300.0 mg/kg/injection, schedule: Q01DX001 (ip), vehicle: carboxymethylcellulose (CMC)
  T/C: 102 % of control

## COc1c(Cl)cc2c(c1OC)N(C)C1N3C(=O)C4(C)SSC3(C(=O)N4C)C(O)C21O (stereo not drawn)
dose: 0.12 mg/kg/injection, schedule: Q01DX009 (ip), vehicle: Klucel (hydroxypropylcellulose) (HPC)
  T/C: 106 % of control
dose: 0.25 mg/kg/injection, schedule: Q01DX009 (ip), vehicle: Klucel (hydroxypropylcellulose) (HPC)
  T/C: 101 % of control
dose: 0.5 mg/kg/injection, schedule: Q01DX009 (ip), vehicle: Klucel (hydroxypropylcellulose) (HPC)
  T/C: 110 % of control
dose: 1.0 mg/kg/injection, schedule: Q01DX009 (ip), vehicle: Klucel (hydroxypropylcellulose) (HPC)
  T/C: 108 % of control

## c1ccc(N=Nc2ccncc2)cc1
dose: 6.25 mg/kg/injection, schedule: Q04DX003 (ip), vehicle: saline with Tween-80
  T/C: 101 % of control
dose: 12.5 mg/kg/injection, schedule: Q04DX003 (ip), vehicle: saline with Tween-80
  T/C: 92 % of control
dose: 25.0 mg/kg/injection, schedule: Q04DX003 (ip), vehicle: saline with Tween-80
  T/C: 97 % of control

## C=CCN(CC=C)CCNc1cc(C)nc(/N=C(\N)Nc2ccc(Cl)c(Cl)c2)n1
dose: 75.0 mg/kg/injection, schedule: Q01DX001 (ip), vehicle: other
  T/C: 92 % of control
dose: 150.0 mg/kg/injection, schedule: Q01DX001 (ip), vehicle: other
  T/C: 92 % of control
dose: 300.0 mg/kg/injection, schedule: Q01DX001 (ip), vehicle: other
  T/C: 92 % of control

## CCCCCCC(C)CCCCCCCCNCCOC(=O)c1ccc(N)cc1 (stereo not drawn)
[4]
  T/C: 102 % of control
[5]
  T/C: 104 % of control

## CC(=O)O[C@H]1CC[C@H]2[C@@H]3[C@H](C)CC4=CC(=O)CCC4[C@H]3CC[C@]12C (stereo partly drawn)
dose: 100.0 mg/kg/injection, schedule: Q01DX001 (sc), vehicle: steriod suspending solution
  T/C: 98 % of control
dose: 200.0 mg/kg/injection, schedule: Q01DX001 (sc), vehicle: steriod suspending solution
  T/C: 100 % of control
dose: 400.0 mg/kg/injection, schedule: Q01DX001 (sc), vehicle: steriod suspending solution
  T/C: 102 % of control

## c1ccc(C2CC2NC2=NCCO2)cc1 (stereo not drawn)
dose: 12.5 mg/kg/injection, schedule: Q04DX002 (ip), vehicle: saline with Tween-80
  T/C: 104 % of control
dose: 25.0 mg/kg/injection, schedule: Q04DX002 (ip), vehicle: saline with Tween-80
  T/C: 101 % of control
dose: 50.0 mg/kg/injection, schedule: Q04DX002 (ip), vehicle: saline with Tween-80
  T/C: 96 % of control
dose: 100.0 mg/kg/injection, schedule: Q04DX002 (ip), vehicle: saline with Tween-80
  T/C: 93 % of control

## C[N+](C)(C)CCCC#CC[N+]1(C)CCOCC1
dose: 8.4 mg/kg/injection, schedule: Q01DX009 (ip), vehicle: saline
  T/C: 151 % of control
dose: 14.0 mg/kg/injection, schedule: Q01DX009 (ip), vehicle: saline
  T/C: 197 % of control
dose: 39.0 mg/kg/injection, schedule: Q01DX009 (ip), vehicle: saline
  T/C: 96 % of control
dose: 65.0 mg/kg/injection, schedule: Q07DX009 (ip), vehicle: saline
  T/C: 157 % of control
dose: 108.0 mg/kg/injection, schedule: Q07DX009 (ip), vehicle: saline
  T/C: 190 % of control
dose: 180.0 mg/kg/injection, schedule: Q07DX009 (ip), vehicle: saline
  T/C: 177 % of control
dose: 300.0 mg/kg/injection, schedule: Q07DX009 (ip), vehicle: saline
  T/C: 123 % of control

## CC1C2CC3OC(=O)C1C3C2 (stereo not drawn)
dose: 50.0 mg/kg/injection, schedule: Q01DX001 (ip), vehicle: carboxymethylcellulose (CMC)
  T/C: 104 % of control
[6]
  T/C: 102 % of control
[7]
  T/C: 87 % of control

## N#CCCN(CCC#N)c1ccc(C=O)cc1
[8]
  T/C: 97 % of control
[9]
  T/C: 111 % of control
[10]
  T/C: 103 % of control
[11]
  T/C: 93 % of control
[12]
  T/C: 96 % of control
[13]
  T/C: 98 % of control

## NC(=O)CC1CCCCC1
[9]
  T/C: 97 % of control
[11]
  T/C: 105 % of control
[13]
  T/C: 103 % of control

## CSc1cc2c(cc1N)Cc1ccccc1-2
[6]
  T/C: 98 % of control
[7]
  T/C: 104 % of control
dose: 400.0 mg/kg/injection, schedule: Q01DX001 (ip), vehicle: carboxymethylcellulose (CMC)
  T/C: 115 % of control

## Cn1c(=O)c2ccccc2c2cc([N+](=O)[O-])ccc21
dose: 50.0 mg/kg/injection, schedule: Q01DX009 (ip), vehicle: Klucel (hydroxypropylcellulose) (HPC)
  T/C: 93 % of control
[8]
  T/C: 97 % of control
[9]
  T/C: 90 % of control
[10]
  T/C: 97 % of control
[11]
  T/C: 94 % of control

## O=C([O][Sb]([O]C(=O)C(F)(F)F)([c]1ccccc1)([c]1ccccc1)[c]1ccccc1)C(F)(F)F
dose: 100.0 mg/kg/injection, schedule: Q01DX001 (ip), vehicle: saline with Tween-80
  T/C: 99 % of control
dose: 200.0 mg/kg/injection, schedule: Q01DX001 (ip), vehicle: saline with Tween-80
  T/C: 92 % of control

## Oc1ccccc1-c1nc2ccccc2[nH]1
dose: 100.0 mg/kg/injection, schedule: Q04DX002 (ip), vehicle: Klucel (hydroxypropylcellulose) (HPC)
  T/C: 109 % of control
dose: 200.0 mg/kg/injection, schedule: Q04DX002 (ip), vehicle: Klucel (hydroxypropylcellulose) (HPC)
  T/C: 98 % of control
dose: 400.0 mg/kg/injection, schedule: Q04DX002 (ip), vehicle: Klucel (hydroxypropylcellulose) (HPC)
  T/C: 95 % of control

## CCOC(=O)c1cnc(SC)nc1Nc1cc(Cl)cc(Cl)c1
dose: 100.0 mg/kg/injection, schedule: Q04DX003 (ip), vehicle: saline with Tween-80
  T/C: 89 % of control
dose: 200.0 mg/kg/injection, schedule: Q04DX003 (ip), vehicle: saline with Tween-80
  T/C: 87 % of control
dose: 400.0 mg/kg/injection, schedule: Q04DX003 (ip), vehicle: saline with Tween-80
  T/C: 91 % of control

## NC(=O)c1ccccc1NC(=O)COc1ccc(Cl)cc1
[8]
  T/C: 95 % of control
[9]
  T/C: 97 % of control
[10]
  T/C: 92 % of control
[11]
  T/C: 98 % of control
[12]
  T/C: 97 % of control
[13]
  T/C: 106 % of control

## CN(C)c1ccc(/C=N/NC(=O)CNC(=O)c2ccc(Cl)cc2Cl)cc1
dose: 50.0 mg/kg/injection, schedule: Q01DX009 (ip), vehicle: saline with Tween-80
  T/C: 86 % of control
dose: 100.0 mg/kg/injection, schedule: Q01DX009 (ip), vehicle: saline with Tween-80
  T/C: 88 % of control
